# Target: T1, gelatinase A (Homo sapiens, UniProt P08253)
# T1 construct: endogenous in cells; host or cells: human normal skin dermal fibroblasts (HNDF)
# T1 sequence (P08253 110-660): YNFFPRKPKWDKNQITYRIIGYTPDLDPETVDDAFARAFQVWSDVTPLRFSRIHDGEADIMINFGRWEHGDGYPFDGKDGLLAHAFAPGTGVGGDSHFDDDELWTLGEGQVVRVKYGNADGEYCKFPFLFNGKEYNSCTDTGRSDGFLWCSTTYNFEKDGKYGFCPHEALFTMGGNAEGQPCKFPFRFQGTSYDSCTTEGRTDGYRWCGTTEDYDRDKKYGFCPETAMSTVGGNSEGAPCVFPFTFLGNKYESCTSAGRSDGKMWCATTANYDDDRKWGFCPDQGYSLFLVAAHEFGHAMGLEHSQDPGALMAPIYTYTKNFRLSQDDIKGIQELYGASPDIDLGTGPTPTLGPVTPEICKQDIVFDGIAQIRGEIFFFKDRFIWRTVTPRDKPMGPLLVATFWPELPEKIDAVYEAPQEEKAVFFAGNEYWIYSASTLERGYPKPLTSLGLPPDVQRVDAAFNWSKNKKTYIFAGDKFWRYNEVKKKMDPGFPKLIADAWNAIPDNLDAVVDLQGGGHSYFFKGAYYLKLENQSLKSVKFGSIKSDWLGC
# Assay: Inhibitory activity against gelatinase A (FITC-labeled gelatin degradation)
# Type: biochemical
# Details: progelatinase A from human normal skin dermal fibroblasts (HNDF), APMA-activated, 2 hours at 37° C., read-out: IC50 for inhibition of gelatinase A activity
# Procedure: The potency of inhibitory activity against each matrix metalloproteinases is confirmed as below. The IC50 value for inhibition of gelatinase A activity is determined as follows.
# (1) Inhibitory activity against gelatinase A
# The progelatinase A (7 μl; in assay buffer (90 μl)) was purified from human normal skin dermal fibroblasts (HNDF). It was activated by the addition of 10 mM of p-aminophenylmercuric acetate (APMA) (10 μl) for 1 hour at 37° C.
# The solution of activated gelatinase A (7 μl/tube, 98 μl) was mixed with various concentrations of the test compound or dimethylsulfoxide (2 μl) and gelatin (100 μl) labeled with 0.05% fluorescein isothiocyanate (FITC) and incubated for 2 hours at 37° C. The reaction was terminated by the addition of 0.1M Tris-HCl (pH9.5) containing 94.7% ethanol (750 μl). The mixture was stirred and then allowed to stand for 30 minutes at 0° C. The mixture was centrifuged for 30 minutes at 900×g. The IC50 was determined by measuring the fluorescent intensity in supernatant (Ex=495 nm, and Em=520 nm).
row,Compound,IC50 [nM]
1,"N=C(N)c1ccc(OC(=O)c2ccc(S(=O)(=O)N[C@@H](Cc3ccccc3)C(=O)O)cc2)cc1 [Example 10(1), N-[[4-(4-Amidinophenoxycarbonyl)phenyl]sulfonyl]-L-phenylalanine methansulfonate]",700
2,"O=C(O)CNS(=O)(=O)c1ccc(NC(=O)c2ccc(F)cc2)cc1 [Example 2(11), N-[[4-(4-Fluorobenzoylamino)phenyl]sulfonyl]glycine]",800
3,Cc1ccc(C(=O)Nc2ccc(S(=O)(=O)NCC(=O)O)cc2)cc1 [compound 2],110
4,"CCCCCc1ccc(C(=O)Nc2ccc(S(=O)(=O)NCC(=O)O)cc2)cc1 [Example 2(35), N-[[4-(4-Pentylbenzoylamino)phenyl]sulfonyl]glycine]",13
5,"Cc1ccc(C(=O)Nc2ccc(S(=O)(=O)N[C@H](Cc3c[nH]c4ccccc34)C(=O)O)cc2)cc1 [Example 3(13), N-[[4-(p-Toluoylamino)phenyl]sulfonyl]-D-tryptophan]",2.7
6,O=C(O)CNS(=O)(=O)c1ccc(OC(=O)c2ccccc2)cc1 [compound 6],420
7,"O=C(O)CNS(=O)(=O)c1ccc(NC(=O)c2ccccc2)cc1 [Example 2(10), N-[[4-(Benzoylamino)phenyl]sulfonyl]glycine]",660
8,"CCCCCc1ccc(C(=O)Nc2ccc(S(=O)(=O)N[C@H](Cc3ccccc3)C(=O)O)cc2)cc1 [Example 2(63), N-[[4-(4-Pentylbenzoylamino)phenyl]sulfonyl]-D-phenylalanine]",2.3
